Structures are written as SMILES.

For data set [1], the system named is Rhipicephalus sanguineus. The data set can be described thus: Rhipicephalus sanguineus in vitro contact test with adult brown dog ticks. It is filed as in vivo. Particulars: after 48 h, dead or moribund ticks. How it is done: After the solvent has evaporated off, the tubes are populated with 5-10 adult dog ticks (Rhipicephalus sanguineus), sealed with a perforated plastic lid and incubated in a horizontal position in the dark at room temperature and ambient humidity. After 48 h, efficacy is determined. To this end, the ticks are knocked to the base of the tube and incubated on a hotplate at 45-50° C. for not more than 5 min. Ticks which remain motionless on the base or move in such an uncoordinated manner that they are unable to deliberately avoid the heat by climbing upwards are considered to be dead or moribund.

The test system of data set [2] is Boophilus microplus. The data set can be described thus: Boophilus microplus injection test. Particulars: application rate 20 μg/animal, after 7 days, laying of fertile eggs. The data set is classed as in vivo. How it is done:
Solvent: dimethyl sulfoxide […] The animals are transferred into dishes and kept in a climate-controlled room. Efficacy is assessed after 7 days by laying of fertile eggs. Eggs which are not visibly fertile are stored in a climate-controlled cabinet until the larvae hatch after about 42 days.

Data set [3] deals with Ctenocephalides felis. The data set can be described thus: Ctenocephalides felis oral test. The data set is classed as in vivo. The note with it: application rate 100 ppm in citrated cattle blood, kill after 2 days. The text has this:
Solvent: dimethyl sulfoxide […] Dilution with citrated cattle blood gives the desired concentration. About 20 unfed adult cat fleas (Ctenocephalides felis) are placed into a chamber which is closed at the top and bottom with gauze. A metal cylinder whose bottom end is closed with parafilm is placed onto the chamber. The cylinder contains the blood/active ingredient formulation, which can be imbibed by the fleas through the parafilm membrane.

The subject of data set [4] is Lucilia cuprina. The data set can be described thus: Lucilia cuprina test. The data set is classed as in vivo. Particulars: application rate 100 ppm, L1 larvae, kill after 2 days. The essentials: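 About 20 L1 larvae were placed in vessels of minced horsemeat containing compound, formulated in dimethyl sulfoxide and diluted with water to the test concentration. Kill (%) was scored after 2 days; 100% means all larvae dead, 0% none.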

Data set [5] relates to Musca domestica. Briefly: Musca domestica test. It is filed as in vivo. The note with it: application rate 100 ppm, adult houseflies, kill after 2 days. An outline of the steps: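 Compound dissolved in DMSO (10 mg per 0.5 ml), diluted with water to test concentration and applied to a sugar-solution sponge. Vessels held 10 adult houseflies; percent kill scored after 2 days (100% = all dead).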

For data set [6], the system named is Phaedon cochleariae. Briefly: Phaedon cochleariae spray test. The data set is classed as in vivo. Particulars: larvae on Chinese cabbage leaf discs, after 7 days. How it is done: Solvent: 78.0 parts by weight of acetone • • 1.5 parts by weight of dimethylformamide Emulsifier: alkylaryl polyglycol ether […] To produce further test concentrations, the formulation is diluted with emulsifier-containing water. Discs of Chinese cabbage leaves (Brassica pekinensis) are sprayed with an active ingredient formulation of the desired concentration and, after drying, populated with larvae of the mustard beetle (Phaedon cochleariae).

Data set [7] has as its system Spodoptera frugiperda. The data set can be described thus: Spodoptera frugiperda spray test. It is filed as in vivo. The note with it: caterpillars on maize leaf discs, after 7 days. How it is done:
Solvent: 78.0 parts by weight of acetone • • 1.5 parts by weight of dimethylformamide Emulsifier: alkylaryl polyglycol ether […] To produce further test concentrations, the formulation is diluted with emulsifier-containing water. Leaf discs of maize (Zea mays) are sprayed with an active compound formulation of the desired concentration and, after drying, populated with caterpillars of the armyworm (Spodoptera frugiperda).

Data set [8] deals with Tetranychus urticae. The data set can be described thus: Tetranychus urticae spray test, OP-resistant. It is filed as in vivo. Particulars: all stages on bean leaf discs, after 6 days. How it is done:
Solvent: 78.0 parts by weight of acetone • • 1.5 parts by weight of dimethylformamide Emulsifier: alkylaryl polyglycol ether […] To produce further test concentrations, the formulation is diluted with emulsifier-containing water. Discs of bean leaves (Phaseolus vulgaris) infested with all stages of the greenhouse red spider mite (Tetranychus urticae) are sprayed with an active ingredient formulation of the desired concentration.

Data set [9] in a line: logP determination by HPLC on reversed-phase column (EEC Directive 79/831 Annex V.A8). It is filed as physicochemical.
For data set [10], the system named is Ctenocephalides felis. Briefly: Ctenocephalides felis in vitro contact test with adult cat fleas. It is filed as in vivo. Particulars: application rate 5 μg/cm^2 (500 g/ha), after 48 h, dead or moribund fleas. How it is done: After the solvent has evaporated off, the tubes are populated with 5-10 adult cat fleas (Ctenocephalides felis), sealed with a perforated plastic lid and incubated in a horizontal position at room temperature and ambient humidity. After 48 h, efficacy is determined. To this end, the tubes are stood upright and the fleas are knocked to the base of the tube. Fleas which remain motionless at the base or move in an uncoordinated manner are considered to be dead or moribund.

[11] abbreviates: application rate 5 μg/cm^2 (500 g/ha).
Setting [12] is: Table 1, HPLC C18, acetonitrile/water with formic acid.
The mark [13] stands for this setting: application rate 1 μg/cm^2 (100 g/ha).

On to `Cc1cc(C(F)(C(F)(F)F)C(F)(F)F)cc(C)c1-n1cc(-c2ccc(F)c(NC(=O)c3ccc(F)cc3)c2)cn1` [Example 5], for which the efficacy is given as 80% in data set [1] (setting [11]); 100% in data set [2]; 90% in data set [3]; 100% in data set [4]; 80% in data set [5]; 100% in data set [6] (application rate 500 g/ha). Also, the efficacy in data set [7] (application rate 100 g/ha), in data set [7] (application rate 500 g/ha), in data set [8] (application rate 100 g/ha) and in data set [8] (application rate 500 g/ha) was 100% throughout. Moreover, the lgP entry in [9] (setting [12]) is “lgP 5.07”.
Turning to `Cc1cc(C(F)(C(F)(F)F)C(F)(F)F)cc(C(F)(F)F)c1-n1cc(-c2ccc(F)c(NC(=O)c3ccc(C#N)cc3)c2)cn1` [Example 33], the efficacy was 100% in data set [10]; 80% in data set [1] (setting [11]); 100% in data set [2]; 100% in [3]; 100% in data set [4]; 90% in data set [5]. The figures for the efficacy in data set [6] (application rate 100 g/ha), in [7] (application rate 100 g/ha) and in [8] (application rate 100 g/ha) were 100%, 100% and 90%, respectively.
As for `Cc1cc(C(F)(C(F)(F)F)C(F)(F)F)cc(C)c1-n1cc(-c2ccc(F)c(NC(=O)c3ccncn3)c2)cn1` [Example 16], the efficacy is listed as 80% in [1] (setting [11]); 100% in [2]; 100% in data set [3]; 95% in data set [4]; 100% in [5]; 100% in data set [6] (application rate 100 g/ha). In data set [7] (application rate 100 g/ha), this compound showed an efficacy of 100%. For the same compound, in data set [9] (setting [12]), the lgP entry is “lgP 5.04”.
`O=C(Nc1ccc(F)c(-c2cnn(-c3c(Br)cc(C(F)(C(F)(F)F)C(F)(F)F)cc3C(F)(F)F)c2)c1)c1cocn1` [Example 2-14]: the efficacy in data set [10] was 100%; in data set [1] (setting [11]) it was 80%; in data set [2] it was 100%; in data set [3], 100%; in [4], 90%; in data set [5], 90%. Moreover, the efficacy in data set [6] (application rate 100 g/ha) and in [7] (application rate 100 g/ha) was 100% each time.
`Cc1cc(C(F)(C(F)(F)F)C(F)(F)F)cc(C(F)(F)F)c1-n1cc(-c2cc(NC(=O)c3cocn3)ccc2F)cn1` [Example 2-12]: the efficacy is listed as 100% in data set [1] (setting [13]); 100% in data set [2]; 95% in [3]; 90% in data set [4]; 100% in data set [6] (application rate 100 g/ha); 100% in [7] (application rate 100 g/ha).
Consider `Cc1cc(C(F)(C(F)(F)F)C(F)(F)F)cc(C)c1-n1cc(-c2cnc(Cl)c(NC(=O)c3ccc(F)cc3)c2)cn1` [Example 11], for which the efficacy in [1] (setting [11]) came to 80%; in data set [2], 100%; in data set [3], 100%; in data set [4], 100%; in data set [5], 100%; in [6] (application rate 100 g/ha), 100%. Further, the results for the efficacy in [7] (application rate 100 g/ha) and in [8] (application rate 100 g/ha) were 100% and 90%, respectively. Besides, the lgP entry in data set [9] (setting [12]) was “lgP 5.14”.
In the case of `Cc1cc(C(F)(C(F)(F)F)C(F)(F)F)cc(C(F)(F)F)c1-n1cc(-c2ccc(F)c(NC(=O)c3ccc(F)cc3)c2F)cn1` [Example 23], the efficacy was found to be 100% in data set [1] (setting [13]); 100% in data set [2]; 100% in [3]; 100% in data set [4]; 80% in data set [5]; 100% in [6] (application rate 100 g/ha). The efficacy in [7] (application rate 100 g/ha) is given as 100%.
`Cc1cc(C(F)(C(F)(F)F)C(F)(F)F)cc(C(F)(F)F)c1-n1cc(-c2ccc(F)c(NC(=O)c3ccncc3)c2F)cn1` [Example 25]: the efficacy in [10], in data set [2], in data set [3], in [4], in data set [5] and in data set [6] (application rate 100 g/ha) was 100% each time. Besides, the efficacy in data set [7] (application rate 100 g/ha) and in data set [8] (application rate 100 g/ha) was 100% each time.
With `Cc1cc(C(F)(C(F)(F)F)C(F)(F)F)cc(C(F)(F)F)c1-n1cc(-c2cccc(NC(=O)c3cocn3)c2F)cn1` [Example 77], the efficacy in [1] (setting [13]), in data set [2], in data set [3], in data set [4], in data set [5] and in [6] (application rate 100 g/ha) was 100% throughout. For the same compound, the efficacy in [7] (application rate 100 g/ha) stood at 100%.
In the case of `Cc1cc(C(F)(C(F)(F)F)C(F)(F)F)cc(C)c1-n1cc(-c2ccc(F)c(NC(=O)c3cncnc3)c2)cn1` [Example 15], the efficacy in data set [10], in [2], in [3], in data set [4], in [5] and in [6] (application rate 100 g/ha) was 100% throughout. The compound also had an efficacy in data set [7] (application rate 100 g/ha) of 100%. Moreover, the lgP result in data set [9] (setting [12]) was “lgP 3.95”.
Consider `Cc1cc(C(F)(C(F)(F)F)C(F)(F)F)cc(C(F)(F)F)c1-n1cc(-c2ccc(F)c(NC(=O)c3ccncc3)c2)cn1` [Example 50], for which the efficacy in data set [10] was 100%; in data set [1] (setting [11]), 80%; in data set [2], 100%; in [3] it was 100%; in data set [4], 100%; in data set [5], 100%. The efficacy in data set [6] (application rate 100 g/ha), in [7] (application rate 100 g/ha) and in [8] (application rate 100 g/ha) was 100% throughout.
Turning to `Cc1cc(C(F)(C(F)(F)F)C(F)(F)F)cc(C)c1-n1cc(-c2ccc(Cl)c(NC(=O)c3ccc(F)cc3)c2)cn1` [Example 4, N-[2-chloro-5-[1-[2,6-dimethyl-4-[1,2,2,2-tetrafluoro-1-(trifluoromethyl)ethyl]phenyl]pyrazol-4-yl]phenyl]-4-fluorobenzamide], the efficacy in [1] (setting [11]), in data set [2], in data set [3], in data set [4], in [6] (application rate 500 g/ha) and in data set [7] (application rate 100 g/ha) was 100% each time. Besides, the efficacy was 100% in data set [7] (application rate 500 g/ha), 100% in [8] (application rate 100 g/ha) and 90% in data set [8] (application rate 500 g/ha). Besides, the lgP entry is listed as “lgP 5.57” in [9] (setting [12]) and 5.57 in data set [9] (synthesis example).
In the case of `COc1cc(C(=O)Nc2cc(-c3cnn(-c4c(C)cc(C(F)(C(F)(F)F)C(F)(F)F)cc4C(F)(F)F)c3)cnc2Cl)ccc1F` [Example 24], the efficacy in data set [1] (setting [11]), in [2], in data set [3], in [4], in data set [5] and in data set [6] (application rate 100 g/ha) was 100% in each case. For the same compound, the efficacy in data set [7] (application rate 100 g/ha) and in data set [8] (application rate 100 g/ha) was 100% throughout.
With `Cc1cc(C(F)(C(F)(F)F)C(F)(F)F)cc(C(F)(F)F)c1-n1cc(-c2ccc(F)c(NC(=O)C3CSC3)c2)cn1` [Example 66], the efficacy in data set [1] (setting [11]), in data set [2], in data set [3], in data set [4], in [5] and in data set [6] (application rate 100 g/ha) was 100% in each case. In addition, the efficacy in [7] (application rate 100 g/ha) and in [8] (application rate 100 g/ha) was 100% each time.

These data come from patent US10202351B2, “Pyrazolyl derivatives as pest control agents” (BAYER ANIMAL HEALTH GMBH, priority 2015, dated 2019).
